The values below come from publication PMC7127794 (Bioorganic & Medicinal Chemistry Letters, 2015).

Data set [1] deals with influenza virus A/H1N1/pdm09. The format is cell-based, influenza virus A/California/07/09/H1N1/pdm09.
In data set [2] the test system is MDCK cells. As to conditions: dog.

Regarding `CC1(C)[C@@H](O[C@@H]2O[C@H](C(=O)N[C@@H](CCCCNC(=O)OCc3ccccc3)C(=O)O)[C@@H](O)[C@H](O)[C@H]2O[C@@H]2O[C@H](C(=O)N[C@@H](CCCCNC(=O)OCc3ccccc3)C(=O)O)[C@@H](O)[C@H](O)[C@H]2O)CC[C@]2(C)[C@H]3C(=O)C=C4[C@@H]5C[C@@](C)(C(=O)O)CC[C@]5(C)CC[C@@]4(C)[C@]3(C)CC[C@@H]12` [Compound 13], in data set [1], the “anti-viral activity (in words)” value is “slightly increased antiviral activity”.

As for `CC1(C)[C@@H](O[C@@H]2O[C@H](C(=O)N[C@@H](CSCc3ccccc3)C(=O)O)[C@@H](O)[C@H](O)[C@H]2O[C@@H]2O[C@H](C(=O)N[C@@H](CSCc3ccccc3)C(=O)O)[C@@H](O)[C@H](O)[C@H]2O)CC[C@]2(C)[C@H]3C(=O)C=C4[C@@H]5C[C@@](C)(C(=O)O)CC[C@]5(C)CC[C@@]4(C)[C@]3(C)CC[C@@H]12` [Compound 11], the “more wide SI values than Rimantadine” value in data set [1] was 14.2 times.

Molecule `COC(=O)C[C@H](NC(=O)[C@H]1O[C@@H](O[C@H]2[C@H](O[C@H]3CC[C@]4(C)[C@H]5C(=O)C=C6[C@H]7C[C@@](C)(C(=O)O)CC[C@]7(C)CC[C@@]6(C)[C@]5(C)CC[C@H]4C3(C)C)O[C@H](C(=O)N[C@@H](CC(=O)OC)C(=O)OC)[C@@H](O)[C@@H]2O)[C@H](O)[C@@H](O)[C@@H]1O)C(=O)OC` [Compound 16] showed a CD50 in data set [2] of 38.0 µM.

On to `CC1(C)[C@@H](O[C@@H]2O[C@H](C(=O)O)[C@@H](O)[C@H](O)[C@H]2O[C@@H]2O[C@H](C(=O)O)[C@@H](O)[C@H](O)[C@H]2O)CC[C@]2(C)C3=CC=C4[C@@H]5C[C@@](C)(C(=O)O)CC[C@]5(C)CC[C@@]4(C)[C@]3(C)CC[C@@H]12` [Compound 19], for which the “more toxic to cells than natural glycoside 1” value in data set [2] was 17 times. Moreover, in data set [1], the “anti-viral activity (in words)” value is “moderate”.

With `COC(=O)[C@H](Cc1ccccc1)NC(=O)[C@H]1O[C@@H](O[C@H]2[C@H](O[C@H]3CC[C@]4(C)[C@H]5C(=O)C=C6[C@@H]7C[C@@](C)(C(=O)O)CC[C@]7(C)CC[C@@]6(C)[C@]5(C)CC[C@H]4C3(C)C)O[C@H](C(=O)N[C@@H](Cc3ccccc3)C(=O)OC)[C@@H](O)[C@@H]2O)[C@H](O)[C@@H](O)[C@@H]1O` [Compound 5], the “more wide SI values than Rimantadine” value in data set [1] is 12.2 times.

For orientation: EC50 means the concentration needed to bring the measured effect to its halfway point. A higher EC50 goes with a need for much substance. For the molecule 18α-GL [Compound 15], the “more toxic to cells than natural glycoside 1” value in data set [2] was 7.7 times. In data set [1], the EC50 is 15.2 µM, the SI is listed as 3 and the “anti-viral activity (in words)” value is given as “week anti-viral activity”.

The molecule `CC1(C)[C@@H](O[C@H]2O[C@H](C(=O)O)[C@@H](O)[C@H](O)[C@H]2O[C@@H]2O[C@H](C(=O)O)[C@@H](O)[C@H](O)[C@H]2O)CC[C@]2(C)[C@H]3C(=O)C=C4[C@@H]5C[C@@](C)(C(=O)O)CC[C@]5(C)CC[C@@]4(C)[C@]3(C)CC[C@@H]12` [Compound 1, Glycyrrhizic acid] had a CD50 in data set [2] of 364.6 µM. The “anti-viral activity (in words)” value in data set [1] is recorded as “did not show anti-viral activity”.

In the case of `COC(=O)C[C@H](NC(=O)[C@H]1O[C@@H](O[C@H]2[C@H](O[C@H]3CC[C@]4(C)[C@H]5C(=O)C=C6[C@@H]7C[C@@](C)(C(=O)O)CC[C@]7(C)CC[C@@]6(C)[C@]5(C)CC[C@H]4C3(C)C)O[C@H](C(=O)N[C@@H](CC(=O)OC)C(=O)OC)[C@@H](O)[C@@H]2O)[C@H](O)[C@@H](O)[C@@H]1O)C(=O)OC` [Compound 9], the CD50 in data set [2] stood at 37.3 µM. The “anti-viral activity (in words)” value in data set [1] is “does not confer virus-inhibiting properties”.
